From patent publication US8058314B2, “Conductance of improperly folded proteins through the secretory pathway and related methods for treating disease” (Yale University, priority 1999, dated 2011)

How the values were obtained:
[1] = type: in vivo, mice
Procedure: A nebulization chamber was constructed using an 8 quart plastic container with a lid that creates an air tight seal. A ‘T piece nebulizer device’ (Hudson RCI T-up Draft Nebumist Nebulizer) was inserted into the container via an opening located on the side of the chamber. The nebulization device was filled with 5 mls of 1 μM thapsigargin dissolved in physiologic saline solution. The gas source (high pressure air) was attached to the set up to create a flow rate of ≧12 liters per minute. Flow was adjusted to maintain a fine visible mist throughout the chamber. Numerous small ventilation holes were placed at the top of the chamber to ensure the escape of carbon dioxide. The nebulization chamber was kept in a fume hood during the experiments to allow for dispersion of any escaped mist.
Mice or cells were placed into the chamber prior to the onset of nebulization. Mice were observed continuously during the nebulization treatments and observations were documented every 15-30 minutes. Lungs were prepared for histologic analysis according to methods described previously (Courtois-Coutry et al., Cell 90:501-510 (1997)).
To examine this issue, six mice were exposed for 3 to 4 hours per day for 14 days to a nebulized solution of 1 μM thapsigargin in normal saline. […] At the end of the 2 week trial, the animals were sacrificed and 4 were processed for histopathologic examination of the lungs.
Wild type and CF mice were exposed to a humidified atmosphere (produced as described in Example 4) containing 1 μM thapsigargin for 3 hours/day for 7-14 days. […] The night before the NPD procedure was performed, mice were taken off Colyte and given water or alimentum (liquid formula). Wet food was also withheld. These steps were taken to decrease the risk of dehydration and/or intestinal obstruction that occur with sedation and dehydration.

ΔF508-CFTR = assay: Western blot of mature CFTR in CFPAC cells; type: cell-based, human; details: thapsigargin treatment as in Example 3
Procedure: Materials and Methods. CFPAC cells were grown to confluence in 10 cm^2 plates (Corning Costar, Cambridge, Mass.). Following thapsigargin treatment performed as described in Example 3, cells were harvested by scraping in PBS, lysed by sonication, and a crude membrane pellet was recovered by centrifugation at 50,000×g for 2 hrs. Electrophoresis and Western blotting were performed as described (Gottardi, C. J. and Caplan, M. J., J. Cell. Biol. 121, 283 (1993)). CFTR protein was detected using an antibody directed against the CFTR nucleotide binding domain 1 (Catalog number 05585, clone L12B4) from Upstate Biotechnology (Lake Placid N.Y.).

[2] = nebulized 1 μM thapsigargin, 14 days, 4 mice examined

Question: Which “ill effects during or between treatments” value ([1]; nebulized 1 μM thapsigargin, 3 to 4 hours per day for 14 days, six mice) does the source give for `C/C=C(/C)C(=O)O[C@H]1C(C)=C2[C@H]([C@@H]1OC(=O)CCCCCCC)[C@@](C)(OC(C)=O)C[C@H](OC(=O)CCC)[C@@]1(O)[C@H]2OC(=O)[C@@]1(C)O` [thapsigargin] here?
Answer: Its value is “no obvious ill effects”.

Question: And the “cellular architecture of the lungs” value [1, 2]?
Answer: Its value is “completely normal”.

Question: And the peribronchiolar lymphocytes [1, 2]?
Answer: Its peribronchiolar lymphocytes is “One of the specimens exhibited a moderate peribronchiolar lymphocytic infiltration”.

Question: What about the morbidity under treatment ([1]; nebulized 1 microM thapsigargin or 50 microM curcumin, 3 hours/day for 7-14 days) of the same compound?
Answer: The morbidity under treatment was “without exhibiting any obvious morbidity”.

Question: What about the “mature CFTR in lysates” value (ΔF508-CFTR) of the same compound?
Answer: Its value is “contained the ˜170 kDa mature form of the ΔF508CFTR protein”.
